The results in this text go back to patent publication US20200268632A1, “ANTI-AGING AGENT AND ANTI-AGING METHOD” (priority 2017, published 2020).

Molecules are shown by their SMILES.

One series has as its system melatonin. The experiment in a line: Evaluation of melatonin secretion promoting effect: melatonin concentration in plasma during 24 weeks of oral ingestion. The series is classed as in vivo, human. The conditions noted are these: for Change rate (24 weeks-0 weeks) of melatonin concentration in the plasma: mean ± SD. As for the experimental part: In order to confirm a change in the melatonin quantity before and after ingestion of the nicotinamide mononucleotide, a test was conducted on healthy males and females aged 50 to 70 years.
As a sample of Working Example 1, a capsule formulation containing the nicotinamide mononucleotide and starch (100 mg (low dose) and 200 mg (high dose) of the nicotinamide mononucleotide in 4 capsules) (manufactured by SHINKOWA PHARMACEUTICAL Co., Ltd.) was used.
(§1) Each group consisting of five healthy males and females aged 50 to 70 years in an unbiased age group ingested the above low dose capsule formulation once a day by 4 capsules for 24 weeks (total 10 subjects, a low dose group: 100 mg/daily ingestion). On the other hand, each group consisting of five healthy males and females aged 50 to 70 years in the unbiased age group ingested the above high dose capsule formulation once a day by 4 capsules for 24 weeks (total 10 subjects, a high dose group: 200 mg/daily ingestion). In order to conduct appropriate evaluations, those who had been regularly using medical products for chronic diseases, those who had been consuming healthy foods that may affect clinical research, and those who were currently participating in other clinical researches or clinical trials, or had participated in other clinical researches or clinical trials within the last three months were excluded from the subject for the evaluation. The capsule formulations were ingested at 10 am (between meals and fasting state) together with water or lukewarm water (oral administration).
Measurement of the melatonin quantity in plasma was conducted by requesting the measurement to an external public organization according to a usual method. FIGS. 2a to 2c indicates transitions of the melatonin concentration (pg/ml) in the plasma for 24 weeks. FIG. 2a represents the transitions of the whole subjects; FIG. 2b represents the transitions of the male subjects; FIG. 2c represents the transitions of the female subjects. FIGS. 3a to 3c indicates change rates (%) of the blood melatonin concentration up to 24 weeks when the nicotinamide mononucleotide was orally administered to the subjects for 24 weeks. FIG. 3a represents the change rates of the whole subjects; FIG. 3b represents the change rates of the male subjects; FIG. 3c represents the change rates of the female subjects. Further, Table 1 indicates the numerical values of the melatonin concentration (pg/ml) in the plasma before the ingestion of the nicotinamide mononucleotide (0 weeks) and after the ingestion of the nicotinamide mononucleotide (24 weeks). In addition, the numerical values represent mean values ±standard deviation.

Series [1] can be described thus: Safety observation of the subjects during 24 weeks of ingestion (complaints, stool abnormality). The series is classed as in vivo, human. The conditions noted are these: healthy males and females aged 50 to 70, 100 or 200 mg/daily oral, ingestion for 24 weeks. As for the experimental part:
as §1

For `NC(=O)c1ccc[n+]([C@@H]2O[C@H](COP(=O)([O-])O)[C@@H](O)[C@H]2O)c1` [nicotinamide mononucleotide], the “Change rate (24 weeks-0 weeks) of melatonin concentration in the plasma” value with melatonin (female subjects, high dose group (200 mg/daily, oral)) came out at 6.03 ± 5.90 pg/mL; in the series on melatonin (female subjects, low dose group (100 mg/daily, oral)), 2.21 ± 3.19 pg/mL; in the series with melatonin (male subjects, high dose group (200 mg/daily, oral)) it was 2.86 ± 3.10 pg/mL; in the series with melatonin (male subjects, low dose group (100 mg/daily, oral)), 3.44 ± 3.57 pg/mL; with melatonin (whole subjects, high dose group (200 mg/daily, oral)), 4.45 ± 4.75 pg/mL; with melatonin (whole subjects, low dose group (100 mg/daily, oral)) it was 2.82 ± 3.26 pg/mL. Moreover, the “effect of ingestion on melatonin concentrations in plasma (FIGS. 2a-2c, 3a-3c)” value in the series with melatonin (healthy males and females aged 50 to 70, 100 or 200 mg/daily oral, up to 24 weeks) was “increased the melatonin concentrations in plasma at the high change rates”. The “melatonin concentration in the plasma after ingestion compared to before ingestion, statistical significance” value in the series on melatonin (whole subjects, both the low dose group and the high dose group, 24 weeks, p<0.05) is “a significant difference was observed”. Further, in series [1], the “unidentified complaints (abdominal pain, nausea, vomiting, headache) or stool abnormality” value is “did not show any unidentified complaint”.
